From ChEMBL document CHEMBL4513161, “CO-ADD screening of MMV (CH) - Pandemic Response Box” (2021) come the findings set out here.

One experiment relates to Candida albicans. As to the kind of experiment: microbe, parasite or virus in culture. The settings on record: ATCC 90028, ASSAY_TEST Inhibition of Fungal Growth, detection method Absorption (OD530), plate type 384well, NBS, CORNING #3640.
In experiment [1] the test system is Pseudomonas aeruginosa. The experiment can be described thus: microbe, parasite or virus in culture. The conditions noted are these: ATCC 27853, 18 h, ASSAY_TEST Inhibition of Bacterial Growth, detection method Absorption (OD600), MEDIA CAMHB, plate type 384well, NBS, CORNING #3640.
Description: Antibacterial activity against Pseudomonas aeruginosa ATCC 27853 (CO-ADD:GN_042); MIC in CAMBH media using NBS plates, by OD(600)
In a further experiment the test system is HEK293. The experiment can be described thus: cells. The class given is functional, Homo sapiens, ATCC CRL1573. The conditions noted are these: Homo sapiens, ATCC CRL1573, HEK293; ASSAY_TEST Inhibition of Cell Viability; detection method Resazurin; Fluorescence (ex560/em590); MEDIA DMEM with 10% FBS; plate type 384well; TC; CORNING #3712; time 18 hr; read-out: CC50.

The subject of another experiment is Acinetobacter baumannii. As to the kind of experiment: microbe, parasite or virus in culture. The settings on record: ATCC 19606, 18 h, ASSAY_TEST Inhibition of Bacterial Growth, detection method Absorption (OD600), MEDIA CAMHB, plate type 384well, NBS, CORNING #3640.
Experiment [2] has as its system Pseudomonas aeruginosa. The experiment can be described thus: Antibacterial activity against Pseudomonas aeruginosa PAO397 [PAO1 d(mexAB-oprM) d(mexCD-oprJ) d(mexEF-oprN) d(mexJKL) d(mexXY) d(opmH)] (CO-ADD:GN_211); MIC in CAMBH media using NBS plates, by OD(600). The class given is functional. The settings on record: ASSAY_TEST Inhibition of Bacterial Growth, detection method Absorption (OD600), MEDIA CAMHB, plate type 384well, CORNING #3640, time 18 hr.

In the next experiment the test system is Staphylococcus aureus. The experiment can be described thus: microbe, parasite or virus in culture. The settings on record: ATCC 43300, 18 h, ASSAY_TEST Inhibition of Bacterial Growth, detection method Absorption (OD600), MEDIA CAMHB, plate type 384well, NBS, CORNING #3640.
In the next experiment the test system is Escherichia coli. The experiment can be described thus: microbe, parasite or virus in culture. The conditions noted are these: ATCC 25922, 18 h, ASSAY_TEST Inhibition of Bacterial Growth, detection method Absorption (OD600), MEDIA CAMHB, plate type 384well, NBS, CORNING #3640.
Another experiment concerns Klebsiella pneumoniae. As to the kind of experiment: microbe, parasite or virus in culture. The settings on record: ATCC 700603, 18 h, ASSAY_TEST Inhibition of Bacterial Growth, detection method Absorption (OD600), MEDIA CAMHB, plate type 384well, NBS, CORNING #3640.

The structures appear in SMILES notation. A value given as a limit tells only on which side of the number the result lay.

Description for Acinetobacter baumannii: Antibacterial activity against Acinetobacter baumannii ATCC 19606 (CO-ADD:GN_034); MIC in CAMBH media using NBS plates, by OD600
Description for Candida albicans: Antifungal activity against Candida albicans ATCC 90028 (CO-ADD:FG_001); MIC in YNB media using NBS plates, by OD630
Description for Cryptococcus neoformans: Antifungal activity against Cryptococcus neoformans H99 ATCC 208821 (CO-ADD:FG_002); MIC in YNB media using NBS plates, by Resazurin OD(600-570)
Description for Escherichia coli: Antibacterial activity against Escherichia coli ATCC 25922 (CO-ADD:GN_001); MIC in CAMBH media using NBS plates, by OD(600)
Description for Klebsiella pneumoniae: Antibacterial activity against Klebsiella pneumoniae MDR ATCC 70063 (CO-ADD:GN_003); MIC in CAMBH media using NBS plates, by OD(600)
Description for Staphylococcus aureus: Antibacterial activity against Staphylococcus aureus MRSA ATCC 43300 (CO-ADD:GP_020); MIC in CAMBH media, using NBS plates, by OD(600)

For the compound `CC1=C(/C=C/C(C)=C/C=C/C(C)=C/C(=O)Nc2ccc(O)cc2)C(C)(C)CCC1` [FENRETINIDE], the MIC in the experiment with Candida albicans, against Pseudomonas aeruginosa [1], against Cryptococcus neoformans, against Acinetobacter baumannii, against Pseudomonas aeruginosa [2] and against Staphylococcus aureus was above 20 µM throughout. Besides, the MIC with Escherichia coli and in the experiment with Klebsiella pneumoniae was above 20 µM in each case. Moreover, the CC50 with HEK293 is above 20 µM.

Regarding `Nc1nc(O)c2ncn([C@@H]3O[C@H](CO)[C@@H](O)[C@H]3F)c2n1`, the MIC with Candida albicans, in the experiment with Pseudomonas aeruginosa [1], in the experiment on Cryptococcus neoformans, against Acinetobacter baumannii, against Pseudomonas aeruginosa [2] and against Staphylococcus aureus was above 20 µM in each case. Further, the MIC against Escherichia coli and against Klebsiella pneumoniae was above 20 µM each time. In addition, the CC50 with HEK293 is above 20 µM.

As to `O=C(Nc1nnc(-c2ccc(Cl)cc2)o1)c1nc2ccccc2s1`, the MIC against Candida albicans, in the experiment on Pseudomonas aeruginosa [1], against Cryptococcus neoformans, against Acinetobacter baumannii, with Pseudomonas aeruginosa [2] and against Staphylococcus aureus was above 20 µM in each case. Also, the MIC against Escherichia coli and in the experiment on Klebsiella pneumoniae was above 20 µM throughout. In the experiment with HEK293, the CC50 was above 20 µM.

Regarding `COc1ccc(CNC(=O)C(NS(=O)(=O)c2ccc3nc(C)sc3c2)C(C)C)cc1` (stereo not given), the MIC with Candida albicans, in the experiment on Pseudomonas aeruginosa [1], against Cryptococcus neoformans, with Acinetobacter baumannii, in the experiment on Pseudomonas aeruginosa [2] and in the experiment on Staphylococcus aureus was above 20 µM each time. Further, the MIC in the experiment on Escherichia coli and with Klebsiella pneumoniae was above 20 µM throughout. For the same compound, in the experiment on HEK293, the CC50 was above 20 µM.

Turning to `CC[N+]1(C/C2=C/CCCCCC2)CCC(NC(=O)C2c3cc(Cl)ccc3Oc3ccc(Cl)cc32)CC1` (stereo not given), the MIC in the experiment with Candida albicans is above 20 µM; with Pseudomonas aeruginosa [1] it was above 20 µM; against Cryptococcus neoformans it was above 20 µM; with Acinetobacter baumannii, above 20 µM; with Pseudomonas aeruginosa [2], above 20 µM; with Staphylococcus aureus, 20 µM. The MIC against Escherichia coli and in the experiment on Klebsiella pneumoniae was above 20 µM each time. The CC50 in the experiment on HEK293 was above 20 µM.

`O=C(c1cc(O)nc2ccccc12)N1CCN(c2ccccc2)CC1`: the MIC against Candida albicans, in the experiment with Pseudomonas aeruginosa [1], against Cryptococcus neoformans, against Acinetobacter baumannii, in the experiment on Pseudomonas aeruginosa [2] and against Staphylococcus aureus was above 20 µM throughout. For the same compound, the MIC in the experiment with Escherichia coli and against Klebsiella pneumoniae was above 20 µM throughout. In the experiment with HEK293, the CC50 is above 20 µM.

On to `Cc1ccn2c(C(=O)NCc3ccccc3)c(C)nc2c1`, for which the MIC in the experiment on Candida albicans, against Pseudomonas aeruginosa [1], in the experiment on Cryptococcus neoformans, against Acinetobacter baumannii, with Pseudomonas aeruginosa [2] and with Staphylococcus aureus was above 20 µM each time. For the same compound, the MIC in the experiment with Escherichia coli and against Klebsiella pneumoniae was above 20 µM each time. In the experiment on HEK293, the CC50 is above 20 µM.

In the case of `O=C(Nc1ccccc1)N(Cc1cc(Br)ccc1O)c1ccc(F)cc1`, the MIC with Candida albicans, in the experiment on Pseudomonas aeruginosa [1], against Cryptococcus neoformans, with Acinetobacter baumannii, in the experiment with Pseudomonas aeruginosa [2] and against Staphylococcus aureus was above 20 µM throughout. Also, the MIC in the experiment on Escherichia coli and with Klebsiella pneumoniae was above 20 µM throughout. Also, the CC50 in the experiment with HEK293 was above 20 µM.

For the compound `CCc1cc(Nc2cc(=O)n(CCN3CCN(C(=O)c4ccccc4)CC3)c(=O)[nH]2)ccc1C`, the MIC in the experiment with Candida albicans, in the experiment on Pseudomonas aeruginosa [1], with Cryptococcus neoformans, in the experiment with Acinetobacter baumannii, in the experiment with Pseudomonas aeruginosa [2] and against Staphylococcus aureus was above 20 µM in each case. Also, the MIC in the experiment with Escherichia coli and in the experiment on Klebsiella pneumoniae was above 20 µM in each case. Also, in the experiment on HEK293, the CC50 is above 20 µM.

Regarding `NCCCc1ccccc1C(=O)Nc1ncc([N+](=O)O)s1`, the MIC with Candida albicans, against Pseudomonas aeruginosa [1], against Cryptococcus neoformans, against Acinetobacter baumannii, with Pseudomonas aeruginosa [2] and in the experiment with Staphylococcus aureus was above 20 µM each time. Besides, the MIC in the experiment with Escherichia coli and in the experiment with Klebsiella pneumoniae was above 20 µM throughout. Further, the CC50 with HEK293 was above 20 µM.

In the case of `O=S(=O)(Nc1ccc(O)cc1)c1cccc2cccnc12`, the MIC against Candida albicans, against Pseudomonas aeruginosa [1], against Cryptococcus neoformans, against Acinetobacter baumannii, in the experiment with Pseudomonas aeruginosa [2] and against Staphylococcus aureus was above 20 µM each time. The MIC with Escherichia coli and in the experiment with Klebsiella pneumoniae was above 20 µM throughout. In the experiment on HEK293, the CC50 is above 20 µM.

As for `Nc1cc(N)c2nc(-c3ccccc3)c(Nc3ccc(F)cc3)nc2c1`, the MIC against Candida albicans, with Pseudomonas aeruginosa [1], in the experiment with Cryptococcus neoformans, in the experiment with Acinetobacter baumannii, in the experiment with Pseudomonas aeruginosa [2] and with Staphylococcus aureus was above 20 µM in each case. Moreover, the MIC against Escherichia coli and against Klebsiella pneumoniae was above 20 µM in each case. For the same compound, in the experiment on HEK293, the CC50 was found to be 1.91 µM.

Take `O=C(Nc1[nH]c(=O)ncc1F)c1ccccc1`: the MIC in the experiment on Candida albicans, in the experiment with Pseudomonas aeruginosa [1], in the experiment on Cryptococcus neoformans, in the experiment with Acinetobacter baumannii, in the experiment with Pseudomonas aeruginosa [2] and against Staphylococcus aureus was above 20 µM throughout. Besides, the MIC against Escherichia coli and with Klebsiella pneumoniae was above 20 µM in each case. The CC50 in the experiment on HEK293 is above 20 µM.

As to `C=CCN(C(=O)OCc1ccc([N+](=O)[O-])cc1)C1CCN(CC[C@](C)(CN(C)S(=O)(=O)c2ccccc2)c2ccccc2)CC1`, the MIC against Candida albicans, in the experiment with Pseudomonas aeruginosa [1], in the experiment on Cryptococcus neoformans, in the experiment on Acinetobacter baumannii, in the experiment with Pseudomonas aeruginosa [2] and in the experiment on Staphylococcus aureus was above 20 µM throughout. Moreover, the MIC in the experiment on Escherichia coli and against Klebsiella pneumoniae was above 20 µM in each case. The 50% cytotoxic concentration (CC50) with HEK293 is above 20 µM.

For `CCCCCCCCC(CP(=O)(O)C(C)N)C(=O)O` (stereo not given), the MIC in the experiment with Candida albicans, against Pseudomonas aeruginosa [1], against Cryptococcus neoformans, in the experiment with Acinetobacter baumannii, with Pseudomonas aeruginosa [2] and in the experiment on Staphylococcus aureus was above 20 µM throughout. In addition, the MIC in the experiment on Escherichia coli and against Klebsiella pneumoniae was above 20 µM throughout. For the same compound, the CC50 with HEK293 is above 20 µM.

In the case of `O=C(O)C(Cc1c[nH]c2ccccc12)N1C(=O)c2ccccc2C1=O` (stereo not given), the MIC against Candida albicans, in the experiment on Pseudomonas aeruginosa [1], in the experiment on Cryptococcus neoformans, with Acinetobacter baumannii, in the experiment on Pseudomonas aeruginosa [2] and in the experiment with Staphylococcus aureus was above 20 µM in each case. The MIC in the experiment with Escherichia coli and against Klebsiella pneumoniae was above 20 µM each time. Moreover, the CC50 in the experiment on HEK293 is above 20 µM.

With `CSC[C@H]1CN(Cc2c[nH]c3c(N)ncnc23)C[C@@H]1O`, the MIC against Candida albicans, against Pseudomonas aeruginosa [1], in the experiment on Cryptococcus neoformans, in the experiment with Acinetobacter baumannii, in the experiment on Pseudomonas aeruginosa [2] and against Staphylococcus aureus was above 20 µM each time. Further, the MIC in the experiment on Escherichia coli and with Klebsiella pneumoniae was above 20 µM in each case. Besides, the CC50 in the experiment with HEK293 was above 20 µM.

Regarding `NCC(=O)Nc1ccc(-n2nc(C(F)(F)F)cc2-c2ccc3c(ccc4ccccc43)c2)cc1` [AR-12], the MIC with Candida albicans, against Pseudomonas aeruginosa [1], in the experiment on Cryptococcus neoformans, in the experiment on Acinetobacter baumannii, in the experiment with Pseudomonas aeruginosa [2] and with Staphylococcus aureus was above 20 µM in each case. For the same compound, the MIC against Escherichia coli and with Klebsiella pneumoniae was above 20 µM each time. Besides, in the experiment on HEK293, the CC50 was determined as 6.68 µM.

Turning to `CCCCCOc1ccc(/C=C2\Oc3c(ccc(O)c3O)C2=O)c(O)c1`, the MIC against Candida albicans, in the experiment with Pseudomonas aeruginosa [1], against Cryptococcus neoformans, in the experiment on Acinetobacter baumannii, in the experiment with Pseudomonas aeruginosa [2] and in the experiment on Staphylococcus aureus was above 20 µM throughout. In addition, the MIC with Escherichia coli and against Klebsiella pneumoniae was above 20 µM throughout. In addition, the CC50 in the experiment with HEK293 was above 20 µM.

In the case of `Fc1ccc2c(/C=C/c3nnn[nH]3)c[nH]c2c1`, the MIC in the experiment on Candida albicans, against Pseudomonas aeruginosa [1], in the experiment with Cryptococcus neoformans, in the experiment with Acinetobacter baumannii, with Pseudomonas aeruginosa [2] and against Staphylococcus aureus was above 20 µM in each case. Moreover, the MIC in the experiment on Escherichia coli and in the experiment with Klebsiella pneumoniae was above 20 µM in each case. Also, the CC50 in the experiment on HEK293 is above 20 µM.
